{"source": "patent US12371428B2", "about": "(Exelixis, Inc., priority 2019, dated 2025)", "key": {"[1]": {"target": "Met (phospho-Met, HGF-stimulated PC-3 prostate cancer cells) (Homo sapiens (Human), UniProt P08581)", "sequence (P08581 25-1390)": "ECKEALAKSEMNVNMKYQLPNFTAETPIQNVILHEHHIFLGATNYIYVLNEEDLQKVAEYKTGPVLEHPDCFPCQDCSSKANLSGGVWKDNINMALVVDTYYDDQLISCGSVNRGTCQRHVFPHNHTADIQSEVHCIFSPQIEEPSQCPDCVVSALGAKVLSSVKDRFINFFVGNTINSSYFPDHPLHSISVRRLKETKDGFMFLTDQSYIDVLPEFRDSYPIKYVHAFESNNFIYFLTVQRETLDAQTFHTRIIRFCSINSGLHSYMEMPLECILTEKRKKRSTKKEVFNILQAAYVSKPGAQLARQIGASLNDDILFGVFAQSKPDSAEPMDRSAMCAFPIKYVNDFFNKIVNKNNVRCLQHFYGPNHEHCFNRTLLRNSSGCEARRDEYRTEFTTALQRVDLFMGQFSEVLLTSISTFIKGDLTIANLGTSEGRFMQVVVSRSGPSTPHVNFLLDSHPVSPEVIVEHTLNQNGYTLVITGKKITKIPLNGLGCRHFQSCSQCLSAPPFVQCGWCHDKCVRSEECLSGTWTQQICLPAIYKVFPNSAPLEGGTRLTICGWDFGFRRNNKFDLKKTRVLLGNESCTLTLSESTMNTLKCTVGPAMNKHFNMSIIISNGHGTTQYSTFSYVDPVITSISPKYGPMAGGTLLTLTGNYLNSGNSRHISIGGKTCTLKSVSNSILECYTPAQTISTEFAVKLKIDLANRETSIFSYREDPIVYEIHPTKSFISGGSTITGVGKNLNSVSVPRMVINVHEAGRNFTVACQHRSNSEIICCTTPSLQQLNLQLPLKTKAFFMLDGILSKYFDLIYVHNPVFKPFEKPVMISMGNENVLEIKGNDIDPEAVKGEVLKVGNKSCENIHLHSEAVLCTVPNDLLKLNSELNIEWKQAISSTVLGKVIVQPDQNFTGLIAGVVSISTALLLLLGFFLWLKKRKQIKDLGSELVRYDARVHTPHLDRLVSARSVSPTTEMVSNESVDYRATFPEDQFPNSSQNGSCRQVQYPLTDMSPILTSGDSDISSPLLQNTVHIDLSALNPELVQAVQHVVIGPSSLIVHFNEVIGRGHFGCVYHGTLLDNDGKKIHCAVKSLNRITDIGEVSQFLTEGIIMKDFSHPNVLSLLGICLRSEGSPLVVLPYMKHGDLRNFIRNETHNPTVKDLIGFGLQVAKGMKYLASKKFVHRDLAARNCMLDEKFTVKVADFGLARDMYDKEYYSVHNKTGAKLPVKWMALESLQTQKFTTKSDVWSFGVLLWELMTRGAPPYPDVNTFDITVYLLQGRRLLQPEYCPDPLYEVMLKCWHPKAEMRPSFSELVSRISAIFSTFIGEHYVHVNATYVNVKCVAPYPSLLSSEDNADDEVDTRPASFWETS", "assay": "Met autophosphorylation ELISA in PC-3 cells (Example F)", "type": "cell-based", "settings": "cellular activity, read-out: c-Met IC50", "summary_of_the_method": "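IC50 values derive from a 4-parameter logistic fit of phospho-Met (panTyr) sandwich ELISA signals in PC-3 lysates, scaled between DMSO and reference-inhibitor wells. Cells, starved 3 h in serum-free medium, had 1 h compound exposure (8 doses, 0.3% DMSO) before 10 min stimulation with 100 ng/mL HGF.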"}, "[2]": {"target": "AXL (phospho-AXL, Gas6-stimulated A-172 glioblastoma cells) (Homo sapiens (Human), UniProt P30530)", "sequence (P30530 26-894)": "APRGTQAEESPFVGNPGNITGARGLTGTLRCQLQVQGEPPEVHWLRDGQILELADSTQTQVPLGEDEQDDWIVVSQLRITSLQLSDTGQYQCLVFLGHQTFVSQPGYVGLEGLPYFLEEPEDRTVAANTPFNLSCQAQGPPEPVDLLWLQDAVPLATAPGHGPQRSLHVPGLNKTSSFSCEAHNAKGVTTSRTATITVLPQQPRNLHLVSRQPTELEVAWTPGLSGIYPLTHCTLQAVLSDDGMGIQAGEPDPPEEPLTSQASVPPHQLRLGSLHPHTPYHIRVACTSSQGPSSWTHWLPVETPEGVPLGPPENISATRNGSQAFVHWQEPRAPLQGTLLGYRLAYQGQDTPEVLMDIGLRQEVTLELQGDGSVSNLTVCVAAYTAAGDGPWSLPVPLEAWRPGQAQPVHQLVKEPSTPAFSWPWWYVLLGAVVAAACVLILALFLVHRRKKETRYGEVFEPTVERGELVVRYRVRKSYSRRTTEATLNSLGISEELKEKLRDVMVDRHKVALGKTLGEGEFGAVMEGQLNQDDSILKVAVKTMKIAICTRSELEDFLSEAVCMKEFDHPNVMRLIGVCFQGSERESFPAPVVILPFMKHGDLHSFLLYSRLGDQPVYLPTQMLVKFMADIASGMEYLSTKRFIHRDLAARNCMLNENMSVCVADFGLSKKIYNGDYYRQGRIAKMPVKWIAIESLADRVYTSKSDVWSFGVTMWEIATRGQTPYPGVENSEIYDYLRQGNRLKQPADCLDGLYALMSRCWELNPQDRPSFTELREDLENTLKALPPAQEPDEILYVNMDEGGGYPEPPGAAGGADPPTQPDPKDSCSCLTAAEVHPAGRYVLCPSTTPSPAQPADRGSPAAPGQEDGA", "assay": "AXL autophosphorylation ELISA in A-172 cells (Example E)", "type": "cell-based", "settings": "cellular activity, read-out: Axl IC50", "summary_of_the_method": "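Phospho-AXL was measured by ELISA in lysates of Gas6-stimulated A-172 cells, starved 24 h in serum-free medium and exposed 1 h to an 8-point compound dilution at 0.3% DMSO.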"}, "[3]": {"target": "KDR (phospho-KDR, VEGF165-stimulated HUVEC cells) (Homo sapiens (Human), UniProt P35968)", "sequence (P35968 20-1356)": "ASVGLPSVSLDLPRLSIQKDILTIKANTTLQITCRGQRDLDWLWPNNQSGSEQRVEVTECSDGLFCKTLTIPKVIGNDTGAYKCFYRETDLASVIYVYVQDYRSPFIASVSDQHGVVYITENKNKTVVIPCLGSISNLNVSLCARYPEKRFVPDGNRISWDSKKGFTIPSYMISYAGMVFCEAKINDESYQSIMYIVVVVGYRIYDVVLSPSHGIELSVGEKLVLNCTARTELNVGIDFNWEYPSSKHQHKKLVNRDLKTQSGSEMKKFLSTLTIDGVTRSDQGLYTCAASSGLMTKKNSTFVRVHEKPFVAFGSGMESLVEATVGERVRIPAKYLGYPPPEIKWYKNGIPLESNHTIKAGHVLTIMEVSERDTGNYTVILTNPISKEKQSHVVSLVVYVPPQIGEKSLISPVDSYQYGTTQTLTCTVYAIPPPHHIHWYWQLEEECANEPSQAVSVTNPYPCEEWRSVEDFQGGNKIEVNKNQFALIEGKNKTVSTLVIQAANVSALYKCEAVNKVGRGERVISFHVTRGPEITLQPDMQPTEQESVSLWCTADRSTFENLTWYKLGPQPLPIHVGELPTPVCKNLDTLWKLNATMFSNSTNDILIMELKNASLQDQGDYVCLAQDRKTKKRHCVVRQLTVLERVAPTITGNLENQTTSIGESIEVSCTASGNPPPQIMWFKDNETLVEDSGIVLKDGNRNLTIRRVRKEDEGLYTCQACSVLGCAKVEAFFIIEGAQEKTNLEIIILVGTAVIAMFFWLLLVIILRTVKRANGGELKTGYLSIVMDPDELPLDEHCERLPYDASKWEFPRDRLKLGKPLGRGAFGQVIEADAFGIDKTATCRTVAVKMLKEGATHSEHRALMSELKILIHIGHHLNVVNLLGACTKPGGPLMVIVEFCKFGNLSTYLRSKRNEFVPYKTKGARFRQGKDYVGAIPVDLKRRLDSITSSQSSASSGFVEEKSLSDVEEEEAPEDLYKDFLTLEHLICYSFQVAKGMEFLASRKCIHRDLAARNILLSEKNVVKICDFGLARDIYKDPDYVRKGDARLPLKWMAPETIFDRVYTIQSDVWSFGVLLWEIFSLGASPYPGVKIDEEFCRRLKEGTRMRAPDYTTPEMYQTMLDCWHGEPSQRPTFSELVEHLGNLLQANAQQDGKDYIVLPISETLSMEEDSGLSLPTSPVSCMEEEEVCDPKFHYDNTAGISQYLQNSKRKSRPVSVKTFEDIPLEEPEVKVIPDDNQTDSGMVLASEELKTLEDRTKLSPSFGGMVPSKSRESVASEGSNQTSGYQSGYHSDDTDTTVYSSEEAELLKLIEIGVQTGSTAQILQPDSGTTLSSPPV", "assay": "KDR autophosphorylation ELISA in HUVEC cells (Example G)", "type": "cell-based", "settings": "cellular activity", "summary_of_the_method": "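Inhibition of VEGF165-driven KDR autophosphorylation is measured in primary human umbilical vein endothelial cells after 24 h serum deprivation. Compound preincubation lasts 1 h before a 5-minute challenge with 100 ng/mL ligand, and phosphorylated receptor is then measured by ELISA in the lysates.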"}, "[4]": {"target": "Human MET (residues 956-1390) (Homo sapiens (Human), UniProt P08581)", "sequence (P08581 956-1390)": "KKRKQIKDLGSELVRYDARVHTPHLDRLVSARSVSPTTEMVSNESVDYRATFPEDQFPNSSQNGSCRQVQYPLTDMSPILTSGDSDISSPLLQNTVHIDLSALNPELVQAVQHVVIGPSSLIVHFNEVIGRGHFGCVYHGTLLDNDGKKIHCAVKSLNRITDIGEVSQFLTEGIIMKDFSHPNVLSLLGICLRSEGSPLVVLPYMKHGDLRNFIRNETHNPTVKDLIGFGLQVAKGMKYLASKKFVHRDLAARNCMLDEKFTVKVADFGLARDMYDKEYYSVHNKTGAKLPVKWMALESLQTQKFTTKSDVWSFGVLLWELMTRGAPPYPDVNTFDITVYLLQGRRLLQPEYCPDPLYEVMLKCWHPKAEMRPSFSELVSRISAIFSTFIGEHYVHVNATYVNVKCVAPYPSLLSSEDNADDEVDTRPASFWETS", "assay": "Human Met kinase assay, HTRF KinEase (Example D-2)", "type": "biochemical", "settings": "read-out: c-Met IC50", "summary_of_the_method": "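IC50 values come from a 4-parameter logistic fit of the […] fluorescence ratio, set between DMSO (100%) and reference compound at 1 μM (0%). Reactions held MET 956-1390 at 0.1 ng/well, ATP at Km, biotinylated peptide, 5 mM MgCl2, 1 mM MnCl2, 1 mM DTT and 3% DMSO, and ran 40 min at room temperature before streptavidin-XL665/Eu-antibody detection.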"}, "[5]": {"target": "Mer (phospho-Mer, MERTK-transfected 293A cells) (Homo sapiens (Human), UniProt Q12866)", "sequence (Q12866 21-999)": "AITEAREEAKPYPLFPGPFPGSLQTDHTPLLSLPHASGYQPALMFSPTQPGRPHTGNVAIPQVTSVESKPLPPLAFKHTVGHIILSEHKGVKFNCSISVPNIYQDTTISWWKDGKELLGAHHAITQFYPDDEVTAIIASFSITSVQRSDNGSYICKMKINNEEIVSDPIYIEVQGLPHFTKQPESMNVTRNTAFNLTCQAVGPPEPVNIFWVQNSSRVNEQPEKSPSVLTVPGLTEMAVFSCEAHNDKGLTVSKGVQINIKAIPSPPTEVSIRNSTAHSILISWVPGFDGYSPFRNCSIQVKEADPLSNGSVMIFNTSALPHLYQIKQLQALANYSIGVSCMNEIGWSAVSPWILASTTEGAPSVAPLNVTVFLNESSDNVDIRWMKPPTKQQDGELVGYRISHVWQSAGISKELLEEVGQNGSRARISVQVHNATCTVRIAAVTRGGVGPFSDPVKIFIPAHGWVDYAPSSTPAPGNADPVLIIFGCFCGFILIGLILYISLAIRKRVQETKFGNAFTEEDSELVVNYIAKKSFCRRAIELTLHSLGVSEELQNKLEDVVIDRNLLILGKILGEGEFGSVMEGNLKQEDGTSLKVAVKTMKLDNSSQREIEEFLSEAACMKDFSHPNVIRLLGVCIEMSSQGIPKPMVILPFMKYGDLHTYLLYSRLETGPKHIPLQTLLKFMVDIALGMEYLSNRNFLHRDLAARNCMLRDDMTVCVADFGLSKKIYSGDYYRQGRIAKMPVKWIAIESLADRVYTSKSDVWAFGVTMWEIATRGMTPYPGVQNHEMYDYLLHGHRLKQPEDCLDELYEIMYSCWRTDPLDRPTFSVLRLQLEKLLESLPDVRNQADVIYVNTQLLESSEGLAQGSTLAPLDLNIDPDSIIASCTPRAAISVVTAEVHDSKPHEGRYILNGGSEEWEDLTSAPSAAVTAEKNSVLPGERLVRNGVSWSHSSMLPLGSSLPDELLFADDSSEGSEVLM", "assay": "Mer autophosphorylation ELISA in transient transfected 293A cells (Example H)", "type": "cell-based", "settings": "cellular activity", "summary_of_the_method": "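IC50 from 4-parameter logistic fit of phospho-Mer levels, quantified by ELISA against a phospho-Mer standard in lysates of MERTK-transfected 293A cells. Cells exposed 1 h to 8-point serial dilutions, serum-free, 0.3% DMSO; controls: DMSO (100%) and reference inhibitor (0%).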"}, "[6]": {"settings": "Met autophosphorylation ELISA in PC-3 cells"}, "[7]": {"settings": "AXL autophosphorylation ELISA in A-172 cells"}, "[8]": {"settings": "KDR autophosphorylation ELISA in HUVEC cells"}, "[9]": {"settings": "Mer autophosphorylation ELISA in transient transfected 293A cells"}}, "note": "Like-named read-outs stand apart in the source and are kept apart here."}
{"compound": "COc1cc2nccc(Oc3ccc(NC(=O)c4cn(C5CN(C)C5)cc(-c5ccc(F)cc5)c4=O)cc3F)c2nc1OC", "note": "[Compound 52, N-[4-[(6,7-Dmethoxy-1,5-naphthyridin-4-yl)oxy]-3-fluorophenyl]-5-(4-fluorophenyl)-1-(1-methylazetidin-3-yl)-4-oxopyridine-3-carboxamide]", "values": [{"measurement": "IC50", "setting": "[1]; [6]", "value": "< 100", "unit": "nM"}, {"measurement": "IC50", "setting": "[2]; [7]", "value": "< 100", "unit": "nM"}, {"measurement": "IC50", "setting": "[3]; [8]", "value": "> 300", "unit": "nM"}, {"measurement": "IC50", "setting": "[4]; protocol of Example D-2 (other compounds)", "value": "< 100", "unit": "nM"}, {"measurement": "IC50", "setting": "[5]; [9]", "value": "< 100", "unit": "nM"}]}
{"compound": "COc1cc2nccc(Oc3ccc(NC(=O)c4cn(C5CNC5)cc(-c5ccc(F)cc5)c4=O)cc3F)c2nc1OC", "note": "[Compound 576, 1-(Azetidin-3-yl)-N-[4-[(6,7-dimethoxy-1,5-naphthyridin-4-yl)oxy]-3-fluorophenyl]-5-(4-fluorophenyl)-4-oxopyridine-3-carboxamide]", "values": [{"measurement": "IC50", "setting": "[1]; [6]", "value": "< 100", "unit": "nM"}, {"measurement": "IC50", "setting": "[2]; [7]", "value": "< 100", "unit": "nM"}, {"measurement": "IC50", "setting": "[3]; [8]", "value": "> 300", "unit": "nM"}, {"measurement": "IC50", "setting": "[4]; protocol of Example D-2", "value": "< 100", "unit": "nM"}, {"measurement": "IC50", "setting": "[5]; [9]", "value": "< 100", "unit": "nM"}]}
{"compound": "COc1cc2nccc(Oc3ccc(NC(=O)c4cn5cc(C)oc5c(-c5ccc(F)cc5)c4=O)cc3F)c2nc1OC", "note": "[Compound 491, N-[4-[(6,7-dimethoxy-1,5-naphthyridin-4-yl)oxy]-3-fluorophenyl]-8-(4-fluorophenyl)-2-methyl-7-oxo-[1,3]oxazolo[3,2-a]pyridine-6-carboxamide]", "values": [{"measurement": "IC50", "setting": "[1]; [6]", "value": "< 100", "unit": "nM"}, {"measurement": "IC50", "setting": "[2]; [7]", "value": "< 100", "unit": "nM"}, {"measurement": "IC50", "setting": "[3]; [8]", "value": "> 300", "unit": "nM"}, {"measurement": "IC50", "setting": "[5]; [9]", "value": "< 100", "unit": "nM"}]}
{"compound": "COc1cnc2c(Oc3ccc(NC(=O)c4c(C)n(CCF)cc(-c5ccc(F)c(C)c5)c4=O)cc3F)ccnc2c1", "note": "[Compound 813, 1-(2-fluoroethyl)-N-[3-fluoro-4-[(7-methoxy-1,5-naphthyridin-4-yl)oxy]phenyl]-5-(4-fluoro-3-methylphenyl)-2-methyl-4-oxopyridine-3-carboxamide]", "values": [{"measurement": "IC50", "setting": "[1]; PC-3 cells", "value": "< 100", "unit": "nM"}, {"measurement": "IC50", "setting": "[2]; A-172 cells", "value": "< 100", "unit": "nM"}, {"measurement": "IC50", "setting": "[3]; HUVEC cells", "value": "100 to 300", "unit": "nM"}, {"measurement": "IC50", "setting": "[5]; transfected 293A cells", "value": "< 100", "unit": "nM"}]}
{"compound": "COc1cc2nccc(Oc3ccc(NC(=O)c4cc(C(C)=O)c(C)n(-c5ccc(F)cc5)c4=O)cc3)c2nc1OC", "note": "[Compound 659, 5-acetyl-N-[4-[(6,7-dimethoxy-1,5-naphthyridin-4-yl)oxy]phenyl]-1-(4-fluorophenyl)-6-methyl-2-oxopyridine-3-carboxamide]", "values": [{"measurement": "IC50", "setting": "[1]; [6]", "value": "< 100", "unit": "nM"}, {"measurement": "IC50", "setting": "[2]; [7]", "value": "< 100", "unit": "nM"}, {"measurement": "IC50", "setting": "[3]; [8]", "value": "> 300", "unit": "nM"}, {"measurement": "IC50", "setting": "[5]; [9]", "value": "< 100", "unit": "nM"}]}
